Patent US20250127728A1, “Constrained Ionizable Cationic Lipids and Lipid Nanoparticles” (CAPSTAN THERAPEUTICS, INC., priority 2023, published 2025)
Entries after “also recorded” stand apart in the source; their conditions may differ. Where two headings read alike, the source gives them in different places. Blank lines part the entries; values can stand above or below the compound they belong to.

Tests used:
splenic T cells = assay: in vivo transfection with mCherry mRNA by CD5-targeted tLNP, splenic T cells; details: C57BL/6 mice; for transfection rate in spleen T cells: 10 μg mRNA tail vein, 24 hours; for effect of ionizable cationic lipid content (50%, 58%, 62%, 65%) on transfection rate / performance of tLNP: transfection rate and expression level (MESF): in words
Procedure: (§1) To assess the ability of a constrained ionizable cationic lipids to facilitate in vivo transfection of T cells with mCherry mRNA (SEQ ID NO. 5), tLNP incorporating CICL-207, or for comparison, CICL-1, and conjugated to an anti-mouse CD5 antibody were prepared and administered to C57BL/6 mice. The tLNP comprised either CICL-207 or CICL-1, DSPC, cholesterol, either DMG-PEG(2000) or DSG-PEG(2000), and DSPE-PEG(2000)-maleimide in the proportions indicated in Table 7 (below) and an N/P ratio of 6. CICL-1 has the structure:
Briefly, to prepare the tLNP, N1-methylpseudouridine (m1ψ)-substituted mCherry mRNA was encapsulated in LNP using a self-assembly process in which an aqueous solution of mRNA at pH 3.5 was rapidly mixed with a solution of lipids dissolved in ethanol, then followed by stepwise phosphate and Tris buffer dilution and tangential flow filtration (TFF) purification. Then an anti-CD5 mAb was conjugated to the above LNP to generate tLNP. Purified rat anti-mouse CD5 antibody, clone 53-7.3 (BioLegend), was coupled to LNP via N-succinimidyl S-acetylthioacetate (SATA)-maleimide conjugation chemistry. Briefly, LNPs with DSPE-PEG(2000)-maleimide incorporated were formulated and stored at 4° C. on the day of conjugation. The antibody was modified with SATA (Sigma-Aldrich) to introduce sulfhydryl groups at accessible lysine residues allowing conjugation to maleimide. SATA was deprotected using 0.5 M hydroxylamine followed by removal of the unreacted components by G-25 Sephadex Quick Spin Protein columns (Roche Applied Science, Indianapolis, IN). The reactive sulfhydryl group on the antibody was then conjugated to maleimide moieties on the LNPs using thioether conjugation chemistry. Purification was performed using Sepharose CL-4B gel filtration columns (Sigma-Aldrich). tLNPs (LNPs conjugated with a targeting antibody) were frozen at −80° C.
The mice were administered tLNPs containing 10 μg of mRNA by tail vein injection and tissue was harvested 24 hours later. […] These same trends have been observed with tLNP comprising CICL-1 as the ionizable lipid (data not shown). The tLNP comprising 58% ionizable cationic lipid had similarly low transfection rates (<4%) for CD45^− liver cells (hepatocytes)(FIG. 1B). […]

[1] = apparent or measured pKa of ionizable lipid in the lipid nanoparticle, TNS assay; assay type: physicochemical
Procedure: The apparent or measured pKa of ionizable lipid in the lipid nanoparticle was determined using 6-(p-toluidino)-2-naphthalenesulfonic acid sodium salt (TNS salt, Toronto Research Chemicals, Toronto, ON, Canada). Lipid nanoparticles were diluted in 1×Dulbecco's PBS to a concentration of 1 mM total lipids. TNS salt was prepared as a 1 mg/mL stock solution in DMSO and then further diluted using distilled water to a working solution of 60 μg/mL ([…]). Diluted lipid nanoparticle samples were further diluted to 90 μM total lipids in 165 μL of buffered solution containing 10 mM HEPES, 10 mM MES, 10 mM ammonium acetate, 130 mM NaCl, and final TNS concentration of 1.33 μg/mL (4 μM) with the pH ranging from 3.5 to 12.2. Following pipette mixing and incubation at room temperature in the dark for 15 min, fluorescence intensity was measured at room temperature in a BioTek Synergy H1 plate reader using excitation and emission wavelengths of 321 and 445 nm, respectively. The fluorescence signal was blank subtracted and plotted as a function of the pH, then analyzed using a nonlinear (Boltzmann) regression analysis with the apparent pKa determined as the pH giving rise to half maximal fluorescence intensity as calculated by the Henderson-Hasselbalch equation.

[2] = as above; assay type: physicochemical; details: predicted from c-pKa and measured pKa of CICL-207
[3] = test system: liver Kupffer cells (CD45+/CD11+ liver cells); assay: in vivo transfection with mCherry mRNA by CD5-targeted tLNP, liver Kupffer cells; details: C57BL/6 mice, 10 μg mRNA tail vein, 24 hours
Procedure: as §1
Briefly, to prepare the tLNP, N1-methylpseudouridine (m1ψ)-substituted mCherry mRNA was encapsulated in LNP using a self-assembly process in which an aqueous solution of mRNA at pH 3.5 was rapidly mixed with a solution of lipids dissolved in ethanol, then followed by stepwise phosphate and Tris buffer dilution and tangential flow filtration (TFF) purification. Then an anti-CD5 mAb was conjugated to the above LNP to generate tLNP. […]
Further ionizable cationic lipids according to Formula M2 were incorporated into tLNP and the ability of the tLNP to transfect cells in vivo assessed essentially as described in the preceding Example. Their physicochemical properties as determined in various experiments are compiled in Table 10.

[4] = test system: luciferase mRNA expression in liver, spleen and other organs; assay: luciferase biodistribution (organ bioluminescence) of LNP and CD5-targeted tLNP; assay type: in vivo, C57Bl/6 mice; details: 2 μg mRNA/animal
Procedure: LNP and tLNP with the F9 and F50 composition were prepared as example 66 described, except the payload consisted of mRNA encoding luciferase (SEQ ID NO. 4).
Eight-week-old female C57BI)6 mice (Charles River Laboratories) were intravenously injected with […] or F50 LNPs or CD5-targeted tLNPs encapsulating mRNA encoding luciferase at a dose of 2 μg mRNA/animal via the tail vein. At 6 hours post-injection, prone and supine bioluminescence images were collected from all mice (FIGS. 8A-8B). Following whole-animal imaging, the mice were sacrificed, and the following tissues were collected: liver, spleen, lung, kidneys (both), heart, bone marrow (femur), lymph nodes (left and right inguinal), and brain. Tissues were placed into luciferin pre-filled black polystyrene plates with spacing between tissues, and bioluminescent images were collected at 6 hours and 24 hours post-injection (FIGS. 8C-8D, respectively).

[5] = tolerability of LNP-containing compositions in rat (general statements); details: tLNP, single doses
[6] = tolerability of F50 LNP: liver enzymes, acute phase proteins, cytokines; assay type: in vivo, Sprague Dawley rats; details: rats, intravenous, up to 8 mg/kg
[7] = Table 11, in tLNP formulation, read-out: Measured pKa
[8] = read-out: measured pKa (in tLNP formulation)

Structure (SMILES): CCCCCCCCC(=O)OCC(COC(=O)CCCCCCCC)CC(=O)O[C@H]1C=C[C@H](OC(=O)CC(COC(=O)CCCCCCCC)COC(=O)CCCCCCCC)CN(C(=O)OCCN(C)C)C1 (racemic) [CICL-218, (((Rel-(3S,6S)-1-((2-(dimethylamino)ethoxy)carbonyl)-2,3,6,7-tetrahydro-1H-azepine-3,6-diyl)bis(oxy))bis(2-oxoethane-2,1-diyl))bis(propane-2,1,3-triyl) tetranonanoate]
transfection rate in spleen T cells (splenic T cells): ca. 20%
pKa [1, 7]: 6.07
pKa [1, 8]: 6.11

Structure (SMILES): CCCCCCCCC(=O)OCC(COC(=O)CCCCCCCC)CC(=O)OC[C@@H]1C[C@@H](OC(=O)CC(COC(=O)CCCCCCCC)COC(=O)CCCCCCCC)CN1C(=O)OCCCN1CCC(O)CC1 [CICL-207-122]
measured pKa in formulation (prediction) [2]: close to the desired pKa=6-7 midpoint

Structure (SMILES): CCCCCCCCC(=O)OCC(COC(=O)CCCCCCCC)CC(=O)OC[C@H]1C[C@H](OC(=O)CC(COC(=O)CCCCCCCC)COC(=O)CCCCCCCC)CN1C(=O)OCCN(C)C [CICL-225, 2-(2-(((2R,4S)-1-((2-(dimethylamino)ethoxy)carbonyl)-4-((4-(nonanoyloxy)-3-((nonanoyloxy)methyl)butanoyl)oxy)pyrrolidin-2-yl)methoxy)-2-oxoethyl)propane-1,3-diyl dinonanoate]
effect of ionizable cationic lipid content (50%, 58%, 62%, 65%) on transfection rate (splenic T cells): greater in both types of liver cells

Structure (SMILES): CCCCCCCCC(=O)OCC(COC(=O)CCCCCCCC)CC(=O)OC[C@@H]1C[C@@H](OC(=O)CC(COC(=O)CCCCCCCC)COC(=O)CCCCCCCC)CN1C(=O)OCCN1CCCCC1 [CICL-207-119]
measured pKa in formulation (prediction) [2]: close to the desired pKa=6-7 midpoint

Structure (SMILES): CCCCCCCCC(=O)OCC(COC(=O)CCCCCCCC)CC(=O)OC[C@@H]1C[C@@H](OC(=O)CC(COC(=O)CCCCCCCC)COC(=O)CCCCCCCC)CN1C(=O)OCCN(CCC)CCC [CICL-207-109]
measured pKa in formulation (prediction) [2]: close to the desired pKa=6-7 midpoint

Structure (SMILES): CCCCCCCCC(=O)OCC(COC(=O)CCCCCCCC)CC(=O)O[C@@H]1C[C@H](OC(=O)CC(COC(=O)CCCCCCCC)COC(=O)CCCCCCCC)CN(C(=O)OCCN(C)C)C1 [CICL-238, (((Rel-(3R,5S)-1-((2-(dimethylamino)ethoxy)carbonyl)piperidine-3,5-diyl)bis(oxy))bis(2-oxoethane-2,1-diyl))bis(propane-2,1,3-triyl) tetranonanoate]
performance of tLNP: transfection rate and expression level (MESF) (splenic T cells): 3 of the 4 poorest performing tLNP
pKa [1, 8]: 7.09

Structure (SMILES): CCCCCCCCC(=O)OCC(COC(=O)CCCCCCCC)CC(=O)OCCN(CCOC(=O)CC(COC(=O)CCCCCCCC)COC(=O)CCCCCCCC)C(=O)OCCN(C)C [CICL-1, reference compound]
transfection rate for liver Kupffer cells (CD45+/CD11+) [3]: ~6%

Structure (SMILES): CCCCCCCCC(=O)OCC(COC(=O)CCCCCCCC)CC(=O)OC[C@@H]1C[C@@H](OC(=O)CC(COC(=O)CCCCCCCC)COC(=O)CCCCCCCC)CN1C(=O)OCCN(C)C [CICL-207, 2-(2-(((2S,4R)-1-((2-(dimethylamino)ethoxy)carbonyl)-4-((4-(nonanoyloxy)-3((nonanoyloxy)methyl)butanoyl)oxy)pyrrolidin-2-yl)methoxy)-2-oxoethyl)propane-1,3-diyl dinonanoate]
bioluminescence in non-target organs [4]: generally producing the least bioluminescence
single dose generally well tolerated [5]: at least 8 mg/kg
effect of ionizable cationic lipid content (50%, 58%, 62%, 65%) on transfection rate (splenic T cells): greater for CICL-207 than for CICL-225 in splenic T cells; also recorded: decreased performance
performance of tLNP: transfection rate and expression level (MESF) (splenic T cells): best performing composition; also recorded: somewhat more desirable transfection rates
tolerability [6]: well tolerated
transfection rate for liver Kupffer cells (CD45+/CD11+) [3]: similarly low levels

Structure (SMILES): CCCCCCCCC(=O)OCC(COC(=O)CCCCCCCC)CC(=O)OC[C@@H]1C[C@H](OC(=O)CC(COC(=O)CCCCCCCC)COC(=O)CCCCCCCC)CN1C(=O)OCCN(C)C [CICL-224, 2-(2-(((2S,4S)-1-((2-(dimethylamino)ethoxy)carbonyl)-4-((4-(nonanoyloxy)-3-((nonanoyloxy)methyl)butanoyl)oxy)pyrrolidin-2-yl)methoxy)-2-oxoethyl)propane-1,3-diyl dinonanoate]
transfection rate in spleen T cells (splenic T cells): below 40%
pKa [1, 7]: 6.98
pKa [1, 8]: ~7

Now from value to compound, other results behind:

measured pKa in formulation (prediction) [2]: close to the desired pKa=6-7 midpoint
Structure (SMILES): CCCCCCCCC(=O)OCC(COC(=O)CCCCCCCC)CC(=O)OC[C@@H]1C[C@@H](OC(=O)CC(COC(=O)CCCCCCCC)COC(=O)CCCCCCCC)CN1C(=O)OCCN(C)c1ccncc1 [CICL-207-130]

measured pKa (in tLNP formulation) [1]: fell outside the range of 6 to 7
Structure (SMILES): CCCCCCCCC(=O)OCC(COC(=O)CCCCCCCC)CC(=O)OC[C@@H]1C[C@@H](OC(=O)CC(COC(=O)CCCCCCCC)COC(=O)CCCCCCCC)CN1C(=O)SCCN(C)C [CICL-217, 2-(2-(((2S,4R)-1-(((2-(dimethylamino)ethyl)thio)carbonyl)-4-((4-(nonanoyloxy)-3-((nonanoyloxy)methyl)butanoyl)oxy)pyrrolidin-2-yl)methoxy)-2-oxoethyl)propane-1,3-diyl dinonanoate]
performance of tLNP: transfection rate and expression level (MESF) (splenic T cells): 3 of the 4 poorest performing tLNP

measured pKa (in tLNP formulation) [1]: fell outside the range of 6 to 7
Structure (SMILES): CCCCCCCCC(=O)OCC(COC(=O)CCCCCCCC)CC(=O)O[C@H]1CN(C(=O)OCCN(C)C)C[C@H]1OC(=O)CC(COC(=O)CCCCCCCC)COC(=O)CCCCCCCC [CICL-216, (((Rel-(3S,4R)-1-((2-(dimethylamino)ethoxy)carbonyl)pyrrolidine-3,4-diyl)bis(oxy))bis(2-oxoethane-2,1-diyl))bis(propane-2,1,3-triyl) tetranonanoate]
performance of tLNP: transfection rate and expression level (MESF) (splenic T cells): 3 of the 4 poorest performing tLNP

pKa [1, 7]: 6.25
pKa [1, 8]: 6.25
Structure (SMILES): CCCCCCCCC(=O)OCC(COC(=O)CCCCCCCC)CC(=O)OC[C@@H]1C[C@H](OC(=O)CC(COC(=O)CCCCCCCC)COC(=O)CCCCCCCC)CN1C(=O)N1CCN(C)CC1 [CICL-239, 2-(2-(((2S,4S)-1-(4-methylpiperazine-1-carbonyl)-4-((4-(nonanoyloxy)-3-((nonanoyloxy)methyl)butanoyl)oxy)pyrrolidin-2-yl)methoxy)-2-oxoethyl)propane-1,3-diyl dinonanoate]
